From US11970455B1, “7-(4-fluorobenzylidene)-4-(4-fluorophenyl)-2-methoxy-6,7-dihydro-5H-cyclopenta[b]pyridine-3-carbonitrile as an antimicrobial compound” (KING FAISAL UNIVERSITY, priority 2023, dated 2024)

Experiments:
Staphylococcus aureus = assay: Antimicrobial testing by agar dilution, St. Aereus; format: cell-based; details: after 10, 20, 40 and 60 min at all dilutions 1:100, 1:200, 1:400, 1:800
Procedure: (§1) The antimicrobial properties of the 7-(4-fluorobenzylidene)-4-(4-fluorophenyl)-2-methoxy-6,7-dihydro-5H-cyclopenta[b]pyridine-3-carbonitrile was studied by the method of agar dilution. Test solutions of each compound was prepared in concentration of 1% using dimethylformamide as a solvent then they are diluted in physiological solution to obtain the final experimental dilutions 1:100, 1:200, 1:400, 1:800. The effect of these substances are compared with furacillin in a controllable study. The testing microbes used were gram positive bacteria Staphylococcus aureus, gram negative bacteria Pseudomonas aeruginosa, Escherichia coli and Candida albicans fungi were taken. The experiments used for this survey were meat-pentonlu agar (EPA) for cultivation of bacteria and Saburo environment for fungi. Each experiment used 1 mL of test solution on each plate 500 min. Add 2 drops of emulsified with microbes feel. All experimental samples were taken from the agar after 10, 20, 40, 60 minutes in the environment on the basis of Patrk planted. Bacteria were cultivated at a temperature of 37° C. for 1 day and the mushroom was kept in a thermostat for […] at a temperature of 28° C. Then the results were checked.

Escherichia coli = assay: Antimicrobial testing by agar dilution, E. Coli; format: cell-based; details: after 10, 20, 40 and 60 min at all dilutions 1:100, 1:200, 1:400, 1:800
Procedure: as §1

Pseudomonas aeruginosa = assay: Antimicrobial testing by agar dilution, Ps. aeruginosa; format: cell-based; details: after 10, 20, 40 and 60 min at all dilutions 1:100, 1:200, 1:400, 1:800
Procedure: as §1

Candida albicans = assay: Antimicrobial testing by agar dilution, Candida albicans; format: cell-based; details: after 10, 20, 40 and 60 min at all dilutions 1:100, 1:200, 1:400, 1:800
Procedure: as §1

melting point: 136 to 138 °C
SMILES: COc1nc2c(c(-c3ccc(F)cc3)c1C#N)CC/C2=C\c1ccc(F)cc1 [7-(4-fluorobenzylidene)-4-(4-fluorophenyl)-2-methoxy-6,7-dihydro-5H-cyclopenta[b]pyridine-3-carbonitrile]
inhibition activity (Staphylococcus aureus): most higher inhibition activity | inhibition activity (Escherichia coli): most higher inhibition activity | inhibition activity (Pseudomonas aeruginosa): most higher inhibition activity | inhibition activity (Candida albicans): most higher inhibition activity
